# From US11168052B2, “Carbamate derivative compounds, processes for preparing them and their uses” (BIO-PHARM SOLUTIONS CO., LTD., priority 2016, dated 2021)
# How the values were obtained:
# [1] = system: Lithium-pilocarpine induced seizure in rats; assay: Lithium pilocarpine model (inter); format: in vivo, Sprague-Dawley rats; details: Rattus norvegicus
# Procedure: Male Sprague-Dawley rats (purchased from Orient Bio Inc. Korea) of body weight 175 grams were used for these studies and 3 rats per cage were housed for 4-5 days. On the day prior to SE, rats received 127 mg/kg lithium chloride (Sigma, St. Louis, Mo., U.S.A.) intraperitoneally (i.p.). Approximately 18-20 h following this treatment, rats were given an i.p. injection of the concentration capable of inducing 97% intermittent convulsions pilocarpine(Sigma, 30-43 mg/kg). An i.p. injection of 2 mg/kg methyl-scopolamine (Sigma) was administered 30 min prior to pilocarpine to block the effects of the muscarinic agonist on peripheral cholinergic receptors. Test drugs were dissolved in 20% tween80 (Sigma).
# The drugs were administered intraperitoneally (i.p.) in a volume of 2 μl/g body weight. Pharmacological effects of all of the test materials were evaluated to compare test groups (n=6) with a control group (n=6). Control group was administered vehicle only. The efficacy was measured 0.5, 1, 2, or 4 hours after the administration of the test material. The time point that the most animals were protected was defined as peak time and the ED50 was determined at peak time. The animals were then transferred to observation cages and observed continuously for 90 min Seizure was elicited in approximately 95% of the control group. […]
# [2] = system: Lithium-pilocarpine induced seizure in rats; assay: Lithium-pilocarpine induced epilepsy test (LI-PILO), prevention test; format: in vivo, Sprague-Dawley rats
# In short: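 Male Sprague-Dawley rats (175 g) received lithium chloride 127 mg/kg i.p., then pilocarpine 30-43 mg/kg i.p. 18-20 h later, with methyl-scopolamine 2 mg/kg given 30 min before pilocarpine. Test drugs in 20% Tween80 were given i.p. 0.5-4 h beforehand (n=6). Protection meant no Racine grade 3-5 seizure over 90 min, and ED50 was determined at peak time.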
# [3] = system: BIC-induced clonic seizure in mice; assay: Chemical induced seizure model (BIC); format: in vivo, ICR mice; details: Mus musculus, ip
# Procedure: Male ICR mice (purchased from Orient Bio Inc. Korea) of body weight 19-26 g were used for these studies. The test materials were administered intraperitoneal route in a volume of 10 ul/g weight. Pharmacological effects of all the test materials were evaluated to compared test groups (n=6) with a control group (n=6). Control group was administrated vehicle, only. The peak time was determined by administration test material's random dose for 0.5 and 1 hour. The time that the most protect was defined peak time and ED50 was determined by other dose administration at peak time. BIC was dissolved in 0.9% saline and administered subcutaneously (s.c.) at its CD97 (convulsive dose 97%) the dose of BIC that produced clonic seizures in 97% into a loose fold of skin in the midline of the neck in a volume of 10 ul/g body weight. The animals were then transferred to observation cages and observed continuously for 30 min. Clonic seizure was elicited in approximately 95% of control group. Protection was defined as complete absence of a clonic seizure over the 30-min observation period. The time that the most protect was defined peak time and ED50 was determined by other dose administration at peak time. The effective dose of compound necessary to protect against seizures to 50% of controls (i.e., ED50) was determined by log probit analysis using Excel 2007 (Microsoft).
# [4] = system: CFA-induced pain model in rats; assay: Antiallodynic activity on Complete Freund's Adjuvant (CFA)-induced inflammatory pain model; format: in vivo, Sprague-Dawley rats; details: Rattus norvegicus, ip, 50 mg/kg intraperitoneally, von Frey threshold relative to sham, 0.5 hr after administration, read-out: Efficacy of 50 mg/kg(%)
# In short: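 Male Sprague-Dawley rats given 100 ul CFA intraplantar in the right hind paw; one week later, ipsilateral mechanical allodynia (baseline threshold <4 g required) assessed with von Frey up-and-down method, 50% withdrawal threshold by Dixon formula. Compounds 50 mg/kg i.p. in 30% PEG or 20% Tween 80, tested 0.5 h post-dose; values as % of sham.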
Structure (SMILES),ED50 [1],"ED50 ([2]; Rattus norvegicus, ip, prevention, read-out: Lithium pilocarpine model (pre) ED50)",ED50 [3],response vs control in vivo at 50 mg/kg [4],"Lithium pilocarpine model (pre) efficacy % ([2]; i.p., dose 50 mg/kg)"
"NC(=O)O[C@@H]1CCc2cccc(Cl)c2[C@@H]1O [Example 1, (1S, 2R)-8-chloro-1-hydroxy-1,2,3,4-tetrahydronaphthalen-2-yl carbamate]",24.5 mg/kg,22 mg/kg,28.9 mg/kg,74.9%,–
"NC(=O)O[C@@H]1c2c(Cl)cccc2CC[C@@H]1O [Example 19, (1R, 2S)-8-chloro-2-hydroxy-1,2,3,4-tetrahydronaphthalen-1-yl carbamate]",–,–,–,51.6%,50%
